Values of other authors as cited in US20190117852A1, “IMPROVEMENTS IN STENTS FOR THE RELEASE OF ACTIVE PRINCIPLES” (CID S.p.A., priority 2016, published 2019).

Conditions: duration of release; correlated to complete in vitro release at 30 hours

CO[C@H]1C[C@@H]2CC[C@@H](C)[C@@](O)(O2)C(=O)C(=O)N2CCCC[C@H]2C(=O)O[C@H]([C@H](C)C[C@@H]2CC[C@@H](O)[C@H](OC)C2)CC(=O)[C@H](C)/C=C(\C)[C@@H](O)[C@@H](OC)C(=O)[C@H](C)C[C@H](C)/C=C/C=C/C=C/1C [Sirolimus]
in vivo release after coronary implantation: greater than 30 days
